Test results taken from the supplement of paper PMC10307832.

How the values were obtained:
Assay in all cases: relative viability (nuclei count vs DMSO), 5 days (fraction); higher = more cells survive
[1] = compound: CCN(CCO)CCCC(C)Nc1ccnc2cc(Cl)ccc12 [Hydroxychloroquine] + Cc1cc(Nc2cc(N3CCN(C)CC3)nc(Sc3ccc(NC(=O)C4CC4)cc3)n2)n[nH]1 [Tozasertib] (partner 0.1 µM)
How it was run: (§1)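 Lung cancer cell lines in 1536-well plates were dosed by pin tool the day after seeding, either with one drug alone or with a fixed anchor-drug dose plus five library-drug doses (not always all listed) in √10 steps. After 5 days, cells were fixed and their nuclei stained in one step (final 0.05% Triton X-100, 1% formaldehyde, 1 ug/ml Hoechst), then counted on 4× images. Relative viability is the nuclei count in treated wells divided by that in vehicle wells. Values are medians of duplicate plates.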

[2] = compound: CCN(CCO)CCCC(C)Nc1ccnc2cc(Cl)ccc12 [Hydroxychloroquine] + COc1cc2c(Oc3ccc(NC(=O)C4(C(=O)Nc5ccc(F)cc5)CC4)cc3F)ccnc2cc1OCCCN1CCOCC1 [Foretinib] (partner 0.25 µM)
How it was run: as §1

[3] = compound: CCN(CCO)CCCC(C)Nc1ccnc2cc(Cl)ccc12 [Hydroxychloroquine] + NC(=O)Nc1cc(-c2cccc(F)c2)sc1C(=O)N[C@H]1CCCNC1 [AZD7762] (partner 0.2 µM)
How it was run: as §1

[4] = compound: CCN(CCO)CCCC(C)Nc1ccnc2cc(Cl)ccc12 [Hydroxychloroquine] + CCNC(=O)c1noc(-c2cc(C(C)C)c(O)cc2O)c1-c1ccc(CN2CCOCC2)cc1 [Luminespib] (partner 0.01 µM)
How it was run: as §1

Cell Line | relative viability ([1]; first compound 0.5 µM) | relative viability ([1]; first compound 1.581 µM) | relative viability ([1]; first compound 5 µM) | relative viability ([1]; first compound 15.81 µM) | relative viability ([1]; first compound 50 µM) | relative viability ([2]; first compound 0.5 µM) | relative viability ([2]; first compound 1.581 µM) | relative viability ([2]; first compound 5 µM) | relative viability ([2]; first compound 15.81 µM) | relative viability ([2]; first compound 50 µM) | relative viability ([3]; first compound 0.5 µM) | relative viability ([3]; first compound 1.581 µM) | relative viability ([3]; first compound 5 µM) | relative viability ([3]; first compound 15.81 µM) | relative viability ([3]; first compound 50 µM) | relative viability ([4]; first compound 0.5 µM) | relative viability ([4]; first compound 1.581 µM) | relative viability ([4]; first compound 5 µM) | relative viability ([4]; first compound 15.81 µM) | relative viability ([4]; first compound 50 µM)
LC-2-ad | 0.447 | 0.478 | 0.415 | 0.463 | 0.455 | 0.956 | 0.895 | 0.895 | 0.921 | 1.05 | 0.898 | 0.822 | 0.842 | 0.832 | 0.85 | 1.19 | 1.02 | 0.906 | 1.01 | 0.969
LCLC-97TM1 | 0.282 | 0.254 | 0.229 | 0.509 | 0.26 | 0.989 | 0.934 | 0.979 | 0.983 | 1.01 | 0.373 | 0.499 | 0.245 | 0.119 | 0.363 | 0.876 | 0.833 | 0.787 | 0.768 | 0.867
LCLC-103H | 0.433 | 0.404 | 0.541 | 0.507 | 0.56 | 0.776 | 0.707 | 0.848 | 0.893 | 0.887 | 0.855 | 0.672 | 0.76 | 0.743 | 0.827 | 0.983 | 0.921 | 1.05 | 1.11 | 1.1
LK-2 | 0.176 | 0.167 | – | 0.176 | 0.154 | 1.31 | 1.41 | – | 1.28 | 0.955 | 0.424 | 0.334 | 0.447 | 0.411 | 0.312 | 0.192 | 0.171 | – | 0.193 | 0.224
LOU-NH91 | 0.651 | 0.6 | 0.687 | 0.692 | 0.723 | 0.921 | 0.831 | 0.949 | 0.94 | 0.914 | 0.762 | 0.646 | 0.776 | 0.744 | 0.828 | 0.369 | 0.313 | 0.307 | 0.345 | 0.371
LU99A | 0.243 | 0.229 | 0.281 | 0.256 | 0.284 | 0.914 | 0.724 | 0.786 | 0.789 | 0.861 | 0.427 | 0.367 | 0.533 | 0.393 | 0.317 | 0.279 | 0.248 | 0.265 | 0.226 | 0.268
LXF-289 | 0.172 | 0.17 | 0.2 | 0.176 | 0.193 | 0.96 | 0.959 | 0.969 | 1.03 | 1.08 | 1.01 | 1.08 | 1.05 | 1.06 | 1.17 | 0.745 | 0.824 | 0.713 | 0.576 | 0.721
NCI-H23 | 0.56 | 0.337 | 0.41 | 0.65 | 0.424 | 1.04 | 0.968 | 0.979 | 0.99 | 0.903 | 0.263 | 0.355 | 0.21 | 0.271 | 0.248 | 0.23 | 0.218 | 0.22 | 0.215 | 0.216
NCI-H322M | 0.506 | 0.478 | 0.484 | 0.547 | 0.49 | 1 | 0.937 | 0.934 | 1.03 | 0.935 | 0.681 | 0.433 | 0.447 | 0.487 | 0.482 | 0.758 | 0.803 | 0.902 | 0.777 | 0.798
NCI-H358 | 0.097 | 0.096 | 0.115 | 0.108 | 0.0849 | 0.639 | 0.628 | 0.643 | 0.593 | 0.827 | 0.498 | 0.566 | 0.534 | 0.436 | 0.442 | 0.286 | 0.293 | 0.282 | 0.283 | 0.388
NCI-H441 | 0.759 | 0.578 | 0.61 | 0.879 | 0.591 | 0.919 | 1.07 | 1.02 | 1.02 | 0.861 | 1.16 | 1.47 | 1.25 | 1.5 | 1.11 | 0.361 | 0.334 | 0.328 | 0.417 | 0.329
NCI-H460 | 0.515 | 0.4 | 0.377 | 0.413 | 0.516 | 1.01 | 0.995 | 1.08 | 1.04 | 1.25 | 0.727 | 0.645 | 0.63 | 0.749 | 0.615 | 0.0311 | 0.0319 | 0.0298 | 0.0324 | 0.0362
NCI-H596 | 1.16 | 0.994 | 0.858 | 0.865 | 0.987 | 0.758 | 0.669 | 0.875 | 0.823 | 0.855 | 0.924 | 0.902 | 1.14 | 1.11 | 1.05 | 1.09 | 1.03 | 0.959 | 0.993 | 0.958
NCI-H647 | 0.263 | 0.357 | 0.278 | 0.346 | 0.272 | 1.25 | 1.16 | 1.18 | 1.39 | 1.25 | 0.542 | 0.455 | 0.423 | 0.252 | 0.373 | 0.204 | 0.141 | 0.132 | 0.234 | 0.142
NCI-H650 | 0.736 | 0.692 | 0.681 | 0.763 | 0.708 | 1.04 | 0.888 | 0.983 | 1.03 | 0.97 | 1.07 | 1.05 | 0.924 | 0.956 | 0.986 | 0.884 | 0.818 | 0.78 | 0.881 | 0.795
NCI-H727 | 0.646 | 0.509 | 0.597 | 0.561 | 0.593 | 0.752 | 0.767 | 0.735 | 0.794 | 0.922 | 0.845 | 0.698 | 0.655 | 0.599 | 0.523 | 0.265 | 0.423 | 0.318 | 0.464 | 0.779
